What was measured:
C2C12 cells = assay: Mitochondrial membrane potential by TMRM fluorescence; assay type: cell-based, mouse; details: 20 min
Procedure: Mitochondrial membrane potential was measured using tetramethylrhodamine methyl ester (TMRM, Life Technologies) fluorescence. C2C12 cells were plated in 6-well plates and grown to 80-90% confluence. Cells were then washed once with PBS and switched into Seahorse respiration buffer with the indicated compounds at the indicated concentrations: TMRM (100 nM), oligomycin (1 μM), FCCP (0.4 μM), and C18:1-Phe (10 or 50 μM). After 20 min. incubation at 37° C., the media was aspirated, cells were washed once with PBS, and trypsinized. Trypsinized cells were directly resuspended in PBS (total volume 300 μl), stored on ice, and analyzed on a FACSCanto™ II (BD Biosciences) with 20,000 events per sample.

[1] = Plasma AST, ALT and cytokine array after chronic treatment of DIO mice; assay type: in vivo, mouse; details: 9 days chronic treatment, versus vehicle
Procedure: FIG. 14 includes 11 panels, identified as panels A, B, C, D, E, F, G, H, I, J, and K, which show the effects of chronic C20:4-Gly administration to mice. Panels A-F show the change in body weight (Panel A), daily and cumulative food intake (Panels B and C), and total body weight at day 7 (Panel D), VO2 (Panel E), and movement (Panel F) of 14 week DIO mice treated daily with vehicle or C20:4-Gly (20 mg/kg/day, i.p.). For Panels E and F, measurements were recorded for 2 days following 7 days chronic treatment with vehicle or C20:4-Gly (20 mg/kg/day, i.p.); during this time daily administration of the indicated compounds continued. […] Panels G-J show plasma AST (Panel G), ALT (Panel H), and plasma cytokine array profiling (Panels I and J) following 9 days chronic treatment with vehicle or C20:4-Gly (20 mg/kg/day, i.p.). For Panels G-J, plasma was collected 24 hr following the last dose of vehicle or C20:4-Gly. For Panels A-H, n=8/group, mean±SEM, *p<0.05, **p<0.01. For Panels I and J, plasma from 4 mice/group were pooled for each array.

[2] = system: differentiated primary iWAT cells; assay: Cellular oxygen consumption rate (Seahorse XF24), differentiated primary iWAT adipocytes; assay type: cell-based, mouse; details: 50 μM, in presence of oligomycin (1 μM)
Procedure: C2C12, U2O5, and 293A cells were cultured in DMEM with 10% FBS and pen/strep. Primary inguinal (iWAT) and brown (BAT) adipocytes were obtained as follows. The stromal-vascular fraction of inguinal (iWAT) pad from 4-12 week old male mice was dissected, minced, and digested for 45 min. at 37° C. in PBS containing 10 mM CaCl2, 2.4 U/ml dispase II (Roche), and 1.5 U/ml collagenase D (Roche). The stromal-vascular fraction of brown fat (BAT) pads from newborn (P1-P14) pups was dissected, minced, and digested for 45 min at 37° C. in PBS containing 1.3 mM CaCl2, 120 mM NaCl, 5 mM KCl, 5 mM glucose, 100 mM HEPES, 4% BSA, and 1.5 mg/ml collagenase B (Roche). Digested tissue was diluted with adipocyte culture media (DMEM/F-12, GlutaMAX™ supplement, Life Technologies, with 10% FBS and pen/strep) and centrifuged (600×g for 10 min.). The pellet was resuspended in 10 ml adipocyte culture media, strained through a 40 μm filter, and plated. Differentiation was induced by application of an adipogenic cocktail containing 5 μg/ml insulin (Sigma), 5 μM dexamethasone (Sigma), 250 μM isobutylmethylxanthine (Sigma), and 1 μM rosiglitazone (Cayman) for 2 days. Two days after induction, cells were maintained in adipocyte culture media containing 5 μg/ml insulin and 1 μM rosiglitazone.
(§1) Cellular oxygen consumption rates were determined using an XF24 Extracellular Flux Analyzer (Seahorse Biosciences). Oligomycin was purchased from EMD Millipore, and FCCP and rotenone were purchased from Sigma. C2C12 or U2OS cells were seeded at 30,000 or 50,000 cells/well, respectively in an XF24 cell culture microplate (V7-PS, Seahorse Bioscience) and analyzed the following day. Primary iWAT or BAT adipocytes were seeded at 15,000 cells/well, differentiation was induced the following day as described, and the cells were analyzed on day 5. On the day of analysis, the cells were washed once with Seahorse respiration buffer (8.3 g/1 DMEM, 1.8 g/l NaCl, 1 mM pyruvate, 20 mM glucose, pen/strep), placed in 0.5 ml Seahorse respiration buffer, and incubated in a CO2-free incubator for 1 hr. Port injection solutions were prepared as follows (final concentrations in assay in parentheses): 10 μM oligomycin (1 μM final), […] amino acid (50 μM final), 2 μM FCCP (0.2 μM final), and 30 μM rotenone (3 μM final). The Seahorse program was run as follows: basal measurement, 3 cycles; inject port A (oligomycin), 3 cycles; inject port B (compounds), 8 cycles; inject port C (FCCP), 3 cycles; inject port D (rotenone), 3 cycles. Each cycle consisted of mix 4 min, wait 0 min, and measure 2 min. For data expressed as a percentage of oligomycin-treated basal, the respiration at cycle 6 was normalized to 100%, and the maximum respiration at any time point between cycles 7 and 15 inclusive was used.

[3] = system: Diet induced obese (DIO) mice; assay: Chronic daily i.p. administration of N-acyl amino acids to DIO mice (body weight, food intake, body composition, GTT); assay type: in vivo, mouse; details: chronic treatment, C18:1-Phe 30 or 50 mg/kg/day, C20:4-Gly 15 mg/kg/day, i.p.
Procedure: (§2) Animal experiments were performed according to procedures approved by the Beth Israel Deaconess Medical Center IACUC. Mice were maintained in 12 h light-dark cycles at 22° C. and fed a standard irradiated rodent chow diet. All experiments on wild-type mice were performed with male C57BL/6 mice purchased from Jackson Laboratories, except for the AAV experiments, which were performed with male C57BL/6 mice from Charles River. UCP1-KO (stock #017476) and 16-20 week DIO mice (stock #380050) were obtained from Jackson Laboratories. For AAV injection experiments, mice were gently warmed using a 250 W clear infrared heat lamp, immobilized, and injected via tail vein with 10^10 virus/mouse (diluted in saline) in a total volume of 100 μl/mouse. Where indicated, mice were placed on high-fat diet (60% fat, Research Diets). For cold exposure experiments, mice were group housed and placed at 4° C. for the indicated times. For the preparation of C18:1-Phe for in vivo injections, compounds were dissolved in 18:1:1 v/v/v saline:Kolliphor® EL (Sigma Aldrich):DMSO and sonicated until homogeneous. Mice were administered compounds at 5 μl/g body weight at the indicated doses. For all injection experiments, mice were mock injected with saline daily for 3 days prior to the start of the experiments. For glucose tolerance tests (GTTs), mice received their final dose of compound the day prior to the assay and were then fasted overnight. Glucose was administered at 1.5 g/kg.
(§3) Energy expenditure, O2 consumption, CO2 production, respiratory exchange ratio, total locomotor activity, and food intake measurements were made with a 16-cage Columbus Instruments Oxymax Comprehensive Lab Animal Monitoring System (CLAMS) at ambient room temperature (21-23° C.). Mice were acclimated for one day in metabolic cages prior to data collection. Whole-body composition was assessed with an EchoMRI™ 3-in-1 on conscious mice.

[4] = system: primary inguinal fat cells, primary BAT cells, C2C12 cells, and U2OS cells; assay: Uncoupled respiration cellular assays (variety of cell types); assay type: cell-based; details: N-acyl amino acids at 10-100 uM
Procedure: as §1

[5] = system: Diet induced obese (DIO) mice; assay: Indirect calorimetry (CLAMS) of high fat diet/DIO mice treated with N-acyl amino acids; assay type: in vivo, mouse; details: daily i.p.: C18:1-Leu 25, C18:1-Phe 30, C20:4-Gly 15 mg/kg/day
Procedure: as §2, §3

## CC[C@H]1/C=C/C=C/C[C@@H](C)[C@H](O)[C@@](C)(O)C(=O)[C@@H](C)[C@H](O)[C@@H](C)C(=O)[C@@H](C)[C@H](O)[C@@H](C)/C=C/C(=O)O[C@@H]2[C@H](C)[C@H](CC1)O[C@]1(CC[C@H](C)[C@H](C[C@@H](C)O)O1)[C@H]2C [oligomycin]
C2C12 cells; TMRM fluorescence
  mitochondrial membrane potential: increased the membrane potential

## CCCCC/C=C\C/C=C\C/C=C\C/C=C\CCCC(=O)NCC(=O)O [C20:4-Gly, N-arachidonoyl glycine]
[1]
  plasma ALT: no sigificant elevations
  plasma AST: no sigificant elevations
  plasma cytokines: no sigificant elevations
[2]
  maximal OCR versus DMSO at the same time point: 285%
  maximal OCR versus oligomycin-treated basal respiration: 295%
[3]
  food intake: reduced food intake
[4]
  uncoupled respiration in cells: increased uncoupled respiration
[5]
  VO2: significantly augmented
  movement: no effects

## N#CC(C#N)=NNc1ccc(OC(F)(F)F)cc1 [FCCP]
C2C12 cells; co-treatment with oligomycin 1 μM, C18:1-Phe 50 μM, FCCP 0.4 μM
  decrease of TMRM fluorescence: ~70%
